Source: US6461997B1, “Triazole sulfones having herbicidal activity” (Monsanto Technology LLC, priority 1999, dated 2002)

Tests used:
SINAR (wild mustard) = assay: Pre-emergence herbicidal activity, cool season; type: in vivo, Sinapis arvensis; conditions: lowest tested rate with 80% or greater inhibition; rates 300, 100, 30, 10 g/ha; about 14 days
Procedure, shortened: (§1)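 Seeds sown in sterilised fertilised topsoil received surface-applied compound in 50:50 acetone/water, typically at 300, 100, 30 and 10 g/ha, then greenhouse-grown at 30/21° C (warm-season species) or 18/13° C (cool-season species). Percent inhibition versus untreated plants was scored at about 14 days, giving GR80; an asterisk marks activity short of 80% at the top rate.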

ALOMY (blackgrass) = assay: Pre-plant incorporated (PPI) herbicidal activity, cool season; type: in vivo, Alopecurus myosuroides; conditions: for PPI activity GR80, ALOMY: pre-plant incorporated, lowest tested rate with 80% or greater inhibition, about 14 days; for Percent inhibition ALOMY: weed, PPI application
Procedure: (§2) In another set of tests, the pre-plant incorporated (PPI) activity of compounds of this invention was evaluated on the same species as for the pre-emergence tests described above. In the PPI tests the following procedure, designed to simulate PPI application, was used.
(§3) A pre-prepared topsoil mixture (described above) was placed in a pot and compacted to a depth of 1.0 to 1.25 cm from the top of the pot. Seeds of each of several monocotyledonous and dicotyledonous annual plant species were placed on top of the soil. A sufficient quantity of soil to cover the seeds and level fill the pot was weighed into an open container. A known amount of the test compound was dissolved or suspended in an organic solvent and applied by spraying to this cover soil. The cover soil was thoroughly mixed to distribute the test compound throughout the cover soil, and was then applied as a cover layer over the seeds. Untreated soil was used as a cover layer for control pots. After treatment the plants were placed in a greenhouse where they received 0.64 cm of overhead irrigation. All subsequent watering consisted of a light overhead mist and/or subirrigation as needed for germination and growth. Tables 9 and 10 below relate to warm season plant species which were placed after pre-emergence treatment in a greenhouse with a 30/21° C. day/night temperature regime. Tables 11 and 12 below relates to cool season plant species placed after pre-emergence treatment in a greenhouse or growth chamber with an 18/13° C. day/night temperature regime. Only the compounds of Examples 1, 6, 8, 11, 13 and 15-20 were included in PPI tests.
(§4) Approximately 14 days after planting and treating, the plants were observed and herbicidal efficacy recorded as percent inhibition by comparison with untreated plants.

corn (ZEAMX) = assay: Selectivity test, PPI, warm season crop; type: in vivo, Zea mays; conditions: PPI application
Procedure: as §3, §4
Additional pre-emergence and PPI tests were conducted by the procedures described above, on warm and cool season weed species in the presence of crop species, to assess herbicidal selectivity. Crop species included in warm season tests were corn (Zea mays, ZEAMX), rice (Oryza sativa, ORYSA) and soybean (Glycine max, GLYMX). Crop species included in cool season tests were wheat (Triticum aestivum, TRZAW), barley (Hordeunm vulgare, HORVX) and oilseed rape (Brassica napus, BRSNS).
Tables 15 and 16 relate to pre-emergence and PPI tests respectively on warm season species. Table 17 relates to pre-emergence tests on cool season species.

[1] = tested on: AGSST (creeping bentgrass); assay: Pre-plant incorporated (PPI) herbicidal activity, cool season; type: in vivo, Agrostis stolonifera; conditions: for PPI activity GR80, AGSST: pre-plant incorporated, lowest tested rate with 80% or greater inhibition, about 14 days; for Percent inhibition AGSST: weed, PPI application
Procedure: as §2, §3, §4

[2] = tested on: GALAP (catchweed bedstraw); assay: as above; type: in vivo, Galium aparine; conditions: for PPI activity GR80, GALAP: pre-plant incorporated, lowest tested rate with 80% or greater inhibition, about 14 days; for Percent inhibition GALAP: weed, PPI application
Procedure: as §2, §3, §4

SASKR (russian thistle) = assay: Pre-emergence herbicidal activity, cool season; type: in vivo, Salsola kali; conditions: lowest tested rate with 80% or greater inhibition; rates 300, 100, 30, 10 g/ha; about 14 days
Procedure, shortened: as §1

| Compound | Pre-emergence activity GR80, SINAR (SINAR (wild mustard)) | Percent inhibition ALOMY (ALOMY (blackgrass); 10 g/ha) | Percent inhibition ALOMY (ALOMY (blackgrass); 30 g/ha) | Percent inhibition ALOMY (ALOMY (blackgrass); 100 g/ha) | Percent inhibition ALOMY (ALOMY (blackgrass); 300 g/ha) | Percent inhibition ALOMY (ALOMY (blackgrass); 900 g/ha) | Percent inhibition ZEAMX (corn (ZEAMX); 10 g/ha) | Percent inhibition ZEAMX (corn (ZEAMX); 30 g/ha) | Percent inhibition ZEAMX (corn (ZEAMX); 100 g/ha) | Percent inhibition ZEAMX (corn (ZEAMX); 300 g/ha) | Percent inhibition ZEAMX (corn (ZEAMX); 900 g/ha) | Percent inhibition AGSST ([1]; 30 g/ha) | Percent inhibition AGSST ([1]; 100 g/ha) | Percent inhibition AGSST ([1]; 300 g/ha) | Percent inhibition AGSST ([1]; 900 g/ha) | Percent inhibition GALAP ([2]; 30 g/ha) | Percent inhibition GALAP ([2]; 100 g/ha) | Percent inhibition GALAP ([2]; 300 g/ha) | Percent inhibition GALAP ([2]; 900 g/ha) | Pre-emergence activity GR80, SASKR (SASKR (russian thistle)) | also measured |
| --- | --- | --- | --- | --- | --- | --- | --- | --- | --- | --- | --- | --- | --- | --- | --- | --- | --- | --- | --- | --- | --- |
| CCN(CC)C(=O)n1cnc(S(=O)(=O)C(F)(F)C(F)F)n1 [Example 16] | 100 g/ha | 40% | 95% | 100% | 100% | 100% | 0% | 5% | 20% | 40% | 80% | 100% | 100% | 100% | 100% | 20% | 100% | 100% | 100% | 100 g/ha | PPI activity GR80, ALOMY (ALOMY (blackgrass)): 30 g/ha; PPI activity GR80, AGSST [1]: 10 g/ha; Percent inhibition AGSST ([1]; 10 g/ha): 100%; PPI activity GR80, GALAP [2]: 100 g/ha; Percent inhibition GALAP ([2]; 10 g/ha): 0% |
| CCN(CC)C(=O)n1cnc(S(=O)(=O)C(F)(F)SCCOC)n1 [Example 13] | [empty] | 40% | 90% | 99% | 99% | 100% | 0% | 0% | 5% | 10% | 50% | 95% | 100% | 100% | 100% | 30% | 0% | 40% | 100% | [empty] | PPI activity GR80, ALOMY (ALOMY (blackgrass)): 100 g/ha; PPI activity GR80, AGSST [1]: 30 g/ha; Percent inhibition AGSST ([1]; 10 g/ha): 60%; PPI activity GR80, GALAP [2]: 300 g/ha; Percent inhibition GALAP ([2]; 10 g/ha): 0% |
| CCN(CC)C(=O)n1cnc(S(=O)(=O)C(F)(F)C(F)(F)Br)n1 [Example 4] | 30 g/ha |  | 70% | 95% | 100% | 100% |  | 0% | 5% | 40% | 50% | 100% | 100% | 100% | 100% | 75% | 100% | 100% | 100% | 30 g/ha |  |
| CCN(CC)C(=O)n1cnc(S(=O)(=O)C(F)(F)SCC(=O)OC)n1 [Example 11] | 100 g/ha | 0% | 0% | 20% | 45% | 100% | 0% | 0% | 0% | 0% | 10% | 50% | 60% | 90% | 100% | 0% | 0% | 20% | 90% | 300 g/ha | PPI activity GR80, ALOMY (ALOMY (blackgrass)): 300 g/ha; PPI activity GR80, AGSST [1]: 300 g/ha; Percent inhibition AGSST ([1]; 10 g/ha): 60%; PPI activity GR80, GALAP [2]: 300 g/ha; Percent inhibition GALAP ([2]; 10 g/ha): 0% |
| CCN(CC)C(=O)n1cnc(S(=O)(=O)C(F)(F)SCc2ccccc2)n1 [Example 10] | 100 g/ha | 0% | 50% | 100% | 95% | 100% | 0% | 0% | 0% | 10% | 40% | 70% | 100% | 100% | 100% | 0% | 80% | 50% | 100% | 100 g/ha | Percent inhibition AGSST ([1]; 10 g/ha): 90%; Percent inhibition GALAP ([2]; 10 g/ha): 0% |
| CCN(CC)C(=O)n1cnc(S(=O)(=O)C(F)(F)Cl)n1 [Example 3] | 300 g/ha |  | 60% | 90% | 99% | 100% |  | 5% | 10% | 30% | 55% | 100% | 100% | 100% | 100% | 100% | 100% | 100% | 100% | [empty] |  |
| CCN(CC)C(=O)n1cnc(S(=O)(=O)C(F)(F)SC)n1 [Example 9] | 300 g/ha |  | 40% | 95% | 100% | 100% |  | 0% | 10% | 90% | 99% | 99% | 100% | 100% | 100% | 100% | 70% | 100% | 100% | 300 g/ha |  |
